From patent US20050080570A1, “Predicting probabilities of achieving a desired minimum trough level for an anti-infective agent” (priority 2003, published 2005)
Like-named read-outs stand apart in the source and are kept apart here.

Columns and labels:
[1] = 100% human serum; fourth study; cited from earlier work
[2] = average value across the studies

O=C1Nc2ccc(Cl)cc2[C@@](C#CC2CC2)(C(F)(F)F)O1 [EFV, Efavirenz]
Protein-binding correction factor, 100% HS [1]: 25.5
Protein-binding correction factor, Average [2]: 18.4

Cc1c(O)cccc1C(=O)N[C@@H](CSc1ccccc1)[C@H](O)CN1C[C@H]2CCCC[C@H]2C[C@H]1C(=O)NC(C)(C)C [NFV, Nelfinavir]
Protein-binding correction factor, 100% HS [1]: 90.6
Protein-binding correction factor, Average [2]: 46.1

Cc1ccnc2c1NC(=O)c1cccnc1N2C1CC1 [NVP, Nevirapine]
Protein-binding correction factor, 100% HS [1]: 1.2
Protein-binding correction factor, Average [2]: 1.3

CC(C)(C)NC(=O)[C@@H]1C[C@@H]2CCCC[C@@H]2CN1C[C@@H](O)[C@H](Cc1ccccc1)NC(=O)[C@H](CC(N)=O)NC(=O)c1ccc2ccccc2n1 [SQV, Saquinavir]
Protein-binding correction factor, Average (human): 23.4
